Laboratory results taken from US20240398775A1, “PHARMACEUTICAL COMPOSITION FOR USE IN TREATING COGNITIVE DECLINE OR FOR USE IN TREATING OVERWEIGHT OR OBESITY” (University of the Ryukyus, priority 2021, published 2024).

How the values were obtained:
[1] = tested on: HFD-fed mice; assay: Morris water maze pattern completion test; assay type: in vivo, mouse; conditions: PER administration
Method: The Morris water maze task was performed as previously described using mice with CD, HFD, and HFD with PER treatment (49). All experiments were performed at approximately the same time of day. Mice were transported from the colony to the holding area and kept undisturbed for 30 minutes prior to the experiment. The tests were performed in a rectangular dimly lit room with a circular pool (Muromachi Kikai Co., Ltd., Tokyo, Japan) of 120 cm diameter filled with opaque water with skim milk (Morinaga, Japan) kept at room temperature. Four large objects illuminated by floor lamps were hung on the black curtains surrounding the pool as cues outside the maze. A hidden circular platform with a diameter of 10 cm was placed 1 cm below the surface of the water and the mice were trained to find the platform 4 times per day at intervals of approximately 60 minutes for 12 days. During training, the mice were released from 4 start points (N, S, E, and W) assigned in a pseudo-random manner and allowed to swim for 300 seconds.
On the thirteenth day, a probe trial was performed under the condition of full-cue (P1). […] Training and probe trial data were collected and analyzed using CompACT VAS/DV video tracking system software. The escape latency to the hidden platform (goal reaching time) was measured.

[2] = tested on: Ca2+ permeable AMPAR (CP-AMPAR); assay: Ca2+ imaging (Fluo-3) of hippocampal brain slices, AMPA + CTZ application (CP-AMPA reaction); assay type: cell-based, mouse
[3] = tested on: NL-G-F mice; assay: Novel object recognition test in Alzheimer's dementia model mice; assay type: in vivo, mouse; conditions: NL-GF mice (n=5), perampanel 5 mg/kg body weight/day in CD diet from 8 to 13 weeks of age
Method: Mice of CD, HFD, and HFD with PER treatment were handled daily for 5 minutes for 5 days prior to the start of the novel object recognition test. PER means the perampanel, which is an AMPA receptor antagonist. The mice were habituated to a 35 cm square, 25 cm high box for 10 minutes on the first day, and were given 2 identical objects (familiar objects) for 10 minutes on the second day. On the third day, one of the familiar objects was replaced with a novel object of different shape and color (FIG. 2F). […] The search time for each object was measured by offline analysis (47).
NL-GF mice begin to accumulate in the brain of Aβ from 8 weeks of age (Nat. Neurosci. 2014 17, 661-4). In this example, the AD model mouse (n=5) was fed a CD diet containing a perampanel at a dose of 5 mg/kg body weight/day from 8 to 13 weeks of age, and the mouse was subjected to a novel object recognition test. In the negative control (n=5), a normal CD diet without perampanel was taken.
NL-G-F(−/−) mice, a dementia model, were administered with memantine (mema), exercise, memantine and exercise, memantine and perampanel, and perampanel alone (5 mg/kg or 10 mg/kg), and subjected to behavioral experiments. As the behavior test, a novel object recognition test and a hippocampus function-dependent fear conditioning test were performed. […]

[4] = tested on: Aβ42/Aβ40; assay: Aβ42/Aβ40 ratio of neurosphere culture supernatant by EIA; assay type: cell-based; conditions: neurospheres from NL-G-F(−/−) mouse embryonic hippocampus, perampanel 50 μM, day 2 and day 4 of culture
Description: Biomarkers of Alzheimer's dementia include the Aβ42/Aβ40 ratio of cerebrospinal fluid (CSF) and plasma levels, phosphorylated tau (P-tau) in threonines 181 and 217, and neurofilament lite (NfL) (Curr Opin Neurol 2021 1 266-274). The Aβ42/Aβ40 ratio is considered to be able to predict Aβ accumulation in PET (Doecke J D et al., Neurology 2020). Hippocampus on 17 to 19 days of NL-G-F(−/−) mouse embryonic life was taken out and cultured by a Neurosphere method by Brewer G J et al. (Nat Protoc 2007 2, 1490-1498), and a supernatant was measured by an EIA method using this culture system. The change in the Aβ42/Aβ40 ratio by the perampanel (50 μM/methyl cellulose 4 μL) was analyzed. In 4 μL of a 0.5 w/v % aqueous solution of methyl cellulose 400, 5×10^4 spheres smaller than 50 μm in diameter were cultured in 50 ml Falcon Flask coated with poly-D-lysine/laminin, and Aβ42 and Aβ40 of the supernatant were measured by EIA method on the second day (FIG. 29A) and the fourth day (FIG. 29B) of culture. The solvent was administered 12 hours after seeding.

[5] = HFD-fed mice with oral PER 5 mg/kg/day, AMPA 100 μM + CTZ 100 μM, N = 5

For `N#Cc1ccccc1-c1cc(-c2ccccn2)cn(-c2ccccc2)c1=O` [PER, 3-(2-cyanophenyl)-5-(2-pyridyl)-1-phenyl-1,2-dihydropyridine-2-one], which pattern completion ability [1] is on record?
Its pattern completion ability is “restored”.

What about the “increase in [Ca2+]i via pathological AMPARs” value [2] of the same molecule?
The value was “completely disappeared”.

What about the “inhibitory effect on CP-AMPAR in EC, CA1, CA2, CA3 and DG” value [2] of the same molecule?
The value was “significant inhibitory effect”.

And the “CP-AMPA reaction CA1 (maximum value of NF525)” value [2, 5]?
Its value is 1.00 ± 0.01.

What about the “CP-AMPA reaction CA2 (maximum value of NF525)” value [2, 5] of the same molecule?
The value was 1.00 ± 0.02.

And the “CP-AMPA reaction CA3 (maximum value of NF525)” value [2, 5]?
The value was 1.00 ± 0.01.

And the “CP-AMPA reaction DG (maximum value of NF525)” value [2, 5]?
The value was 1.02 ± 0.01.

And the “CP-AMPA reaction EC (maximum value of NF525)” value [2, 5]?
The value was 1.05 ± 0.05.

And the “elevation of [Ca2+]i via AMPAR” value ([2]; acute slices from HFD-fed mice, 100 μM PER applied)?
The value was “completely disappeared”.

What about the “transmission via AMPAR” value ([2]; hippocampal slices from mice fed HFD and PER 5 mg/kg/day orally by hydrogel) of the same molecule?
The value was “normalize transmission via AMPAR”.

What about the novel object recognition [3] of the same molecule?
The novel object recognition was “significantly distinguish”.

What about the “Aβ42/Aβ40 ratio of the culture supernatant” value [4] of the same molecule?
Its value is “significantly increased”.
